# Results from the supplement of paper PMC11208160.
# Assay: recombinant UMI read abundance after kanamycin selection (control-corrected) (log10(CPM+1)); higher = more efficient recombination; extreme values may be limits of the assay; sequences stand for … in AGTGCAGAGAAAATCGGCCAGTTTTCTCTGCCTGCAGTCCGCATGCCGTGGGACCCCTTGGGTTCTAACCTGTTGCCTAGATTTATGCAGCGGACTGCCTTTCTCCCAAAGTGATAAACCGG…AGGTTGGTTTCACT; site = the 11-nt donor
# In short: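 Values, expressed as log10(CPM+1), derive from recombinant UMI counts converted to CPM, averaged across replicates and scaled by control-derived factors. Plating was with IPTG (0.07 mM) plus kanamycin or unselected, two replicates each. The screen pooled donor and donor-binding-loop pairs for the IS621 bridge recombinase in Escherichia coli.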
# 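Note: IS621 bridge recombinase in Escherichia coli cells against a fixed T5 target plasmid.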
row,Sequence,recombinant UMI read abundance (log10)
1,AGCCGTCCATGGACCGGTTTTCCCGGTAATCCGTATTTGAT (site AACCGTCCTAT),0.00909
2,AGCCGTCCATGGACCGGTTTTCCCGGTAATCCGTATTTGAT (site ACCCGTCCTAT),0
3,AGCCGTCCATGGACCGGTTTTCCCGGTAATCCGTATTTGAT (site AGCCGTCCTAT),1.09
4,AGCCGTCCATGGACCGGTTTTCCCGGTAATCCGTATTTGAT (site ATCCGTCCTAT),0.0112
5,AGCCTCTCATGGACCGGTTTTCCCGGTAATCCGTATTTGAC (site AGCCTATCTGT),0
6,AGCCTCTCATGGACCGGTTTTCCCGGTAATCCGTATTTGAC (site AGCCTCTCTGT),0
7,AGCCTCTCATGGACCGGTTTTCCCGGTAATCCGTATTTGAC (site AGCCTGTCTGT),0
8,AGCCTCTCATGGACCGGTTTTCCCGGTAATCCGTATTTGAC (site AGCCTTTCTGT),0
9,AGCCTTACATGGACCGGTTTTCCCGGTAATCCGTATTTGAC (site AGCCTTACTGT),2.52
10,AGCCTTACATGGACCGGTTTTCCCGGTAATCCGTATTTGAC (site AGCCTTCCTGT),0
11,AGCCTTACATGGACCGGTTTTCCCGGTAATCCGTATTTGAC (site AGCCTTGCTGT),0
12,AGCCTTACATGGACCGGTTTTCCCGGTAATCCGTATTTGAC (site AGCCTTTCTGT),0
13,AGCCTTGCATGGACCGGTTTTCCCGGTAATCCGTATTTGTA (site AGCCTTGCTTA),0.019
14,AGCCTTTCATGGACCGGTTTTCCCGGTAATCCGTATTTGGC (site AGCCTTTCTGA),0
15,AGCCTTTCATGGACCGGTTTTCCCGGTAATCCGTATTTGGC (site AGCCTTTCTGC),0
16,AGCCTTTCATGGACCGGTTTTCCCGGTAATCCGTATTTGGC (site AGCCTTTCTGG),0
17,AGCCTTTCATGGACCGGTTTTCCCGGTAATCCGTATTTGGC (site AGCCTTTCTGT),0
18,AGCGAGCCATGGACCGGTTTTCCCGGTAATCCGTATTTGTA (site AGCGAGCCTTA),0.53
19,AGCGAGCCATGGACCGGTTTTCCCGGTAATCCGTATTTGTT (site AGCGAGCCTAA),0.501

row,Sequence,recombinant UMI read abundance (log10)
1,AGCGGATCATGGACCGGTTTTCCCGGTAATCCGTATTTGAG (site AGCGGATCTCT),2.33
2,AGCGTGGCATGGACCGGTTTTCCCGGTAATCCGTATTTGGG (site AGCGTGGCTCC),0.277
3,AGCGTTTCATGGACCGGTTTTCCCGGTAATCCGTATTTGAC (site AGCATTTCTGT),0
4,AGCGTTTCATGGACCGGTTTTCCCGGTAATCCGTATTTGAC (site AGCCTTTCTGT),0
5,AGCGTTTCATGGACCGGTTTTCCCGGTAATCCGTATTTGAC (site AGCGTTTCTGT),2.63
6,AGCGTTTCATGGACCGGTTTTCCCGGTAATCCGTATTTGAC (site AGCTTTTCTGT),0.136
7,AGCTACGCATGGACCGGTTTTCCCGGTAATCCGTATTTGTC (site AGCTACGCTGA),2.27
8,AGCTAGACATGGACCGGTTTTCCCGGTAATCCGTATTTGGG (site AACTAGACTCC),0.0198
9,AGCTAGACATGGACCGGTTTTCCCGGTAATCCGTATTTGGG (site ACCTAGACTCC),0.239
10,AGCTAGACATGGACCGGTTTTCCCGGTAATCCGTATTTGGG (site AGCTAGACTCC),0.0244
11,AGCTAGACATGGACCGGTTTTCCCGGTAATCCGTATTTGGG (site ATCTAGACTCC),0.0227
12,AGCTATTCATGGACCGGTTTTCCCGGTAATCCGTATTTGGC (site AGCTATTCTGC),0.69
13,AGCTCAGCATGGACCGGTTTTCCCGGTAATCCGTATTTGCG (site AGCTCAGCTCA),0.0116
14,AGCTCAGCATGGACCGGTTTTCCCGGTAATCCGTATTTGCG (site AGCTCAGCTCC),0.00908
15,AGCTCAGCATGGACCGGTTTTCCCGGTAATCCGTATTTGCG (site AGCTCAGCTCG),0.537
16,AGCTCAGCATGGACCGGTTTTCCCGGTAATCCGTATTTGCG (site AGCTCAGCTCT),0.277
17,AGCTCCGCATGGACCGGTTTTCCCGGTAATCCGTATTTGCG (site AGCTCCGCTCG),0.271
18,AGCTGGTCATGGACCGGTTTTCCCGGTAATCCGTATTTGTA (site AGCTGGTCTTA),0.951
19,AGCTTAGCATGGACCGGTTTTCCCGGTAATCCGTATTTGGG (site AGCTAAGCTCC),0.0186
